What all share (assay): NCI-60 cell line screen, 48 h
For experiment [1], the system named is OVCAR-4 ovarian.
Experiment [2] concerns EKVX NSCLC.
The test system of experiment [3] is RXF 393 renal.
The test system of experiment [4] is OVCAR-5 ovarian.
Experiment [5] deals with HCT-15 colon.
The test system of experiment [6] is SK-MEL-28 melanoma.
In experiment [7] the test system is NCI-H23 lung.
Experiment [8] concerns UACC-257 melanoma.
In experiment [9] the test system is A549 NSCLC.
The subject of experiment [10] is SNB-19 CNS.

SMILES strings stand for the structures.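 Exposure lasted 48 hours, with cells grown in 96-well plates and compounds tested at five concentrations. GI50 is the concentration that inhibits growth by half. TGI is the concentration that stops growth completely.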

In the case of `C[C@]12CC[C@@H]3c4cc(OC(F)F)c(O)cc4CC[C@H]3[C@@H]1CC[C@@H]2OS(N)(=O)=O`, the GI50 in experiment [1] was 15.8 µM; in [2] it was 1.51 µM; in [3], 0.315 µM; in [4], 3.51 µM; in experiment [5], 0.458 µM; in experiment [6], 10.5 µM. Moreover, the GI50 in [7] was 1.46 µM; in [8] it was 16.7 µM; in experiment [9], 0.968 µM; in experiment [10], 0.551 µM. Besides, the TGI is 97.6 µM in [1]; above 100 µM in experiment [2]; 6.42 µM in experiment [3]; above 100 µM in [4]; 26.8 µM in experiment [5]; 78.2 µM in [6]. Moreover, the TGI was 50.8 µM in [7], 79.6 µM in [8], above 100 µM in [9] and above 100 µM in experiment [10].

Turning to `Nc1nc2c(ncn2C2CCC(CO)O2)c(=O)n1C(=O)c1ccccc1` (centres undefined), the TGI in [1], in experiment [2], in experiment [3], in experiment [4], in experiment [5] and in experiment [6] was above 100 µM throughout. For the same molecule, the TGI in experiment [7], in experiment [8], in [9] and in [10] was above 100 µM in each case.

For the molecule `CC(C)(C)N1CCC1CN` (centres undefined), the GI50 in experiment [1], in experiment [2], in [3], in experiment [4], in [5] and in experiment [6] was above 100 µM throughout. The GI50 in experiment [7], in [8], in [9] and in [10] was above 100 µM in each case. Besides, the TGI in experiment [1], in experiment [2], in experiment [3], in experiment [4], in [5] and in experiment [6] was above 100 µM each time. Moreover, the TGI in experiment [7], in experiment [8], in [9] and in experiment [10] was above 100 µM each time.

Consider `O=C1C(Cl)=C(Sc2nnc3c4ccccc4c4ccccc4c3n2)C(=O)c2ccccc21`, for which the TGI in experiment [1] was 29.2 µM; in experiment [2], 37.7 µM; in experiment [3] it was 32 µM; in experiment [4] it was 45.3 µM; in [5], 42.8 µM; in experiment [6], 39.6 µM. Further, the TGI amounted to 19.4 µM in [7], 30 µM in experiment [8], 71.4 µM in experiment [9] and 36.6 µM in [10].

For `COC(=O)[C@@H](C)C[C@H](Cc1cn(C)c2ccccc12)NC(=O)c1csc([C@@H](C[C@H](C(C)C)N(C)C(=O)[C@@H](NC(=O)[C@H]2CCCCN2C)C(C)C)OC(C)=O)n1`, the GI50 is 0.575 µM in experiment [1]; 0.044 µM in [2]; 0.023 µM in experiment [3]; 0.0671 µM in experiment [4]; 0.0665 µM in experiment [5]; above 4.36 µM in experiment [6]. The GI50 in experiment [7] was 0.0718 µM; in experiment [8], above 16.7 µM; in [9], 0.0338 µM; in experiment [10], 0.00883 µM. For the same molecule, the TGI in [1], in experiment [2], in experiment [3], in experiment [4], in [5] and in [6] was above 16.7 µM throughout. Moreover, the TGI in experiment [7], in [8], in experiment [9] and in [10] was above 16.7 µM throughout.

As to `CN(C)c1ccc(/C=C/C(=O)[O-])cc1.CN(C)c1ccc(/C=C/C(=O)[O-])cc1.[Cu+2]`, the GI50 in [1] is 14.9 µM; in experiment [3], above 100 µM; in experiment [6], above 69.8 µM; in [7], above 100 µM. For the same molecule, the TGI is above 100 µM in experiment [1]; above 100 µM in experiment [2]; above 100 µM in experiment [3]; 60.3 µM in experiment [4]; above 100 µM in experiment [5]; above 100 µM in experiment [6]. Further, the TGI in [7], in [8], in experiment [9] and in experiment [10] was above 100 µM throughout.

As to `CCOC(=O)C1SC(=Nc2cccc(Cl)c2C)N=C1C` (centres undefined), the TGI in experiment [1] was 89.5 µM; in experiment [2], above 10 µM; in experiment [3] it was above 100 µM; in [4], 41.9 µM; in experiment [5] it was above 10 µM; in [6], above 100 µM. For the same molecule, the TGI in experiment [7] is above 10 µM; in experiment [8], above 10 µM; in experiment [9], 60.4 µM; in experiment [10], above 100 µM.

`NC1=CC(=O)c2cccnc2C1=O`: the GI50 is 1.3 µM in experiment [1]; 1.58 µM in [2]; 1.67 µM in experiment [3]; 2.05 µM in experiment [4]; 1.76 µM in experiment [5]; 1.7 µM in experiment [6]. In addition, the GI50 in [7] is 1.34 µM; in experiment [8], 1.54 µM; in experiment [9] it was 3.84 µM; in experiment [10], 1.84 µM. Moreover, the TGI in [1] worked out at 2.78 µM; in experiment [2], 3.31 µM; in experiment [3] it was 3.2 µM; in [4], 4.72 µM; in experiment [5], 10.2 µM; in experiment [6] it was 3.21 µM. Besides, the TGI in experiment [7] was determined as 4.14 µM; in experiment [8] it was 2.9 µM; in experiment [9], 15 µM; in [10] it was 3.88 µM.

For the molecule `COc1cc2nccc(Oc3ccc(NC(=O)NC4CC4)c(Cl)c3)c2cc1C(N)=O`, the GI50 in [1] was 12.2 µM; in [2], 26.1 µM; in [3] it was 12.4 µM; in experiment [4] it was 47.4 µM; in [5], 32 µM; in experiment [6], 41.3 µM. In addition, the GI50 in experiment [7] was 15.6 µM; in experiment [8], 27 µM; in [9] it was 29.9 µM; in experiment [10], 17.7 µM. Further, the TGI in [1] was above 100 µM; in experiment [2] it was above 100 µM; in [3], 43.4 µM; in [4], above 100 µM; in experiment [5], above 100 µM; in experiment [6], above 100 µM. Also, the TGI in [7] was above 74.6 µM; in [8], above 93.7 µM; in [9], above 100 µM; in experiment [10], 62.1 µM.

The values are drawn from PubChem BioAssay (NCI).
